Here are results for three substances from patent publication US5656722A, “A^21 -, B^30 - modified insulin derivatives having an altered action profile” (Hoechst Aktiengesellschaft, priority 1988, dated 1997).

One data set deals with dogs. In words: Action profile (blood glucose) of insulin compositions in dogs. It counts as in vivo. On the procedure:
D) Action Profile of an Asp^A21 -Human Insulin-Arg^B31 -Arg^B32-OH Composition in dogs by comparison with human insulin-Arg^B31 -Arg^B32 -OH and basal H insulin Hoechst^(R) =an NPH (neutral protamine Hagedorn) composition containing about 10 μg of Zn^2+.

For data set [1] the following is noted: pH 4.
Protocol: 18 mg of glycerol, 10 mg of benzyl alcohol, 80 μg of Zn^2+, pH 4.0.
For data set [2] the following is noted: measured by isoelectric focusing; cited from earlier work.

Turning to “Asp^A21 -Human Insulin-Arg^B31 -Arg^B32 -OH”, the “Blood glucose as a % of the initial level” value in the data set with dogs (1 h) worked out at 99%; in the data set with dogs (2 h), 62%; in the data set on dogs (3 h), 51%; in the data set on dogs (5 h), 75%; in the data set on dogs (7 h), 98%. For the same substance, the “Action profile (basal profile)” value in the data set with dogs (compared with human insulin-Arg^B31 -Arg^B32 -OH) is given as “same advantageous basal profile as human insulin-Arg^B31 -Arg^B32 -OH”. The Stability result in data set [1] is listed as “stable for a long time under the chosen conditions”.
Consider “human insulin-Arg^B31 -Arg^B32 -OH [Human insulin Arg^B31 --Arg^B32 --OH, reference compound]”, for which the “Blood glucose as a % of the initial level” value in the data set on dogs (1 h) is on record as 77%; with dogs (2 h), 52%; with dogs (3 h), 64%; with dogs (5 h) it was 85%; in the data set on dogs (7 h), 98%.
With proinsulin: proinsulin, the Isoelectric point in data set [2] is reported as 5.4 pH.
